Laboratory results: ChEMBL document CHEMBL2390816, “Structure-based optimization of oxadiazole-based GSK-3 inhibitors” (Eur J Med Chem, 2013)

Columns and labels:
[1] = biological target: T1, Aurora kinase A (Homo sapiens, UniProt O14965); assay: Inhibition of human recombinant AURKA by FRET assay
T1 sequence (O14965 whole entry): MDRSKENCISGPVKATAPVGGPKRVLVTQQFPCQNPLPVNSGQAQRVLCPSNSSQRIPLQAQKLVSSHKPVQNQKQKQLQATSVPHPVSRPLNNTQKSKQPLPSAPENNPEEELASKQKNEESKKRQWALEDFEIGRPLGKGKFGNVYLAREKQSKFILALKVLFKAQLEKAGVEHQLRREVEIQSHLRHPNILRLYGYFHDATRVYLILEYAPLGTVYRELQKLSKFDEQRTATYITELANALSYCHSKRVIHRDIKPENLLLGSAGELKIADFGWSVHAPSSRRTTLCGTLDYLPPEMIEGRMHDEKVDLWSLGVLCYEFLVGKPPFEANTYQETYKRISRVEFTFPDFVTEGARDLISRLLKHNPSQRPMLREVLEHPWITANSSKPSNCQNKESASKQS

[2] = biological target: Cyclin-dependent kinase 5 (Homo sapiens, UniProt Q00535); assay: Inhibition of human recombinant Cdk5/p35 by FRET assay
Sequence of Cyclin-dependent kinase 5 (Q00535 whole entry): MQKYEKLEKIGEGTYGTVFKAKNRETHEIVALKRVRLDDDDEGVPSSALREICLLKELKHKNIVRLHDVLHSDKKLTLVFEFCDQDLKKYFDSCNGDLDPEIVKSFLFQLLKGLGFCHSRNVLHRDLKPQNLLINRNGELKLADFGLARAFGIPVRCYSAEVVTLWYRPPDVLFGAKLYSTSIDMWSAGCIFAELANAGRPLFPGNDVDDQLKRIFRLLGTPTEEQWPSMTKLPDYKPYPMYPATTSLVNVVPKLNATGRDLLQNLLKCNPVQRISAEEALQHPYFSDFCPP

[3] = biological target: Glycogen synthase kinase-3 beta (Homo sapiens, UniProt P49841); assay: Inhibition of human recombinant GSK3beta by FRET assay
Sequence of Glycogen synthase kinase-3 beta (P49841 whole entry, canonical isoform): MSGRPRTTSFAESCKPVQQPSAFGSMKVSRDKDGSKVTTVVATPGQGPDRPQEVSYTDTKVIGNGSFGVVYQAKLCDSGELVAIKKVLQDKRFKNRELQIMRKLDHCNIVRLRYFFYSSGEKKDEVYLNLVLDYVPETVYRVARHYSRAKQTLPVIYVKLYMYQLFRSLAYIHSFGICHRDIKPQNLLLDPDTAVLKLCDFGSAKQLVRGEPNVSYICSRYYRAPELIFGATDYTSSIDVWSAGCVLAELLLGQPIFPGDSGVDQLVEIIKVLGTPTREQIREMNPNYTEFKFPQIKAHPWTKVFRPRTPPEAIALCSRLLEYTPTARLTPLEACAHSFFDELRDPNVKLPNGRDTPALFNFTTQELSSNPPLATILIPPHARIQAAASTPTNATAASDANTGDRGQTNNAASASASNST

[4] = biological target: Casein kinase I isoform epsilon (Homo sapiens, UniProt P49674); assay: Inhibition of human recombinant CK1epsilon by FRET assay
Sequence of Casein kinase I isoform epsilon (P49674 whole entry, canonical isoform): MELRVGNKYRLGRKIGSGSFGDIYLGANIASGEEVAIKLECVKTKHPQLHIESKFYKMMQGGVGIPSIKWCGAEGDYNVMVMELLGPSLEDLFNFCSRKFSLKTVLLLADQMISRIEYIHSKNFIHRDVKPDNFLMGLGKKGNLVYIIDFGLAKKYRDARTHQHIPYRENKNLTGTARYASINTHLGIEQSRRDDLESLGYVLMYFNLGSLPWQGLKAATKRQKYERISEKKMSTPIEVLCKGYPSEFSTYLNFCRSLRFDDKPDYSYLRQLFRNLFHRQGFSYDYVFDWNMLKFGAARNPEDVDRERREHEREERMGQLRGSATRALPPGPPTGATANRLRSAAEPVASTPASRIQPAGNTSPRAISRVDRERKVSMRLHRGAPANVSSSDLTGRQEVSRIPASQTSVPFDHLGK

[5] = biological target: Glycogen synthase kinase-3 alpha (Homo sapiens, UniProt P49840); assay: Inhibition of human recombinant GSK3alpha by FRET assay
Sequence of Glycogen synthase kinase-3 alpha (P49840 whole entry): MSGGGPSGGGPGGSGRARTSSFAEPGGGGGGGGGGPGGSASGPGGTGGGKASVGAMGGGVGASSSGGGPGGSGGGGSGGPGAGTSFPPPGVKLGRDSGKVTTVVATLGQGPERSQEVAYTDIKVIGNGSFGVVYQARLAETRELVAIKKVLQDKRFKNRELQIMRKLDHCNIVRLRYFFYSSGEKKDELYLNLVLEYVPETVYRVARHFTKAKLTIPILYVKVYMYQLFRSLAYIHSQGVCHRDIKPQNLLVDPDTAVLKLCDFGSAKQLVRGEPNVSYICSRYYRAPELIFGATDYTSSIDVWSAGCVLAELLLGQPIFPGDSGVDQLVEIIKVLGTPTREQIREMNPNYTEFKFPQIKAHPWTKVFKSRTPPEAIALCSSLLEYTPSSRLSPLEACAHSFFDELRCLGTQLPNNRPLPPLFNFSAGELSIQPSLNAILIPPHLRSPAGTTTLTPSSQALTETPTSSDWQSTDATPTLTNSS

[6] = biological target: Protein kinase C alpha type (Homo sapiens, UniProt P17252); assay: Inhibition of human recombinant PKCalpha by FRET assay
[7] = species: Danio rerio; assay: Toxicity in wild type zebra fish embryo up to 30 uM; assay type: organism-based; conditions: zebrafish, in vivo

SMILES	IC50 [1] [µM]	IC50 [2] [µM]	IC50 [3] [µM]	IC50 [4] [µM]	IC50 [5] [µM]	IC50 [6] [µM]	Activity [7]
N#Cc1cc(F)ccc1-c1ccc(CSc2nnc(-c3ccncc3)o2)cc1	> 100	> 100	0.056	> 100	0.324	> 100	
c1ccc(-c2ccc(CSc3nnc(-c4ccncc4)o3)cc2)cc1	> 100	> 100	0.083	> 100	0.052	> 100	
CC(=O)Nc1cc(-c2nnc(SCc3cccc(C#N)c3)o2)ccn1	> 100	> 100	0.019	> 100	0.017	> 100	
CC(=O)Nc1cc(-c2nnc(SCc3ccc(-c4ccccc4C#N)cc3)o2)ccn1	> 100	> 100	0.017	> 100	0.002	> 100	Non-toxic
Fc1cc(F)cc(-c2ccc(CSc3nnc(-c4ccc5c(c4)OCO5)o3)cc2)c1	> 100	> 100	0.195	80	0.051	> 100	
O=[N+]([O-])c1cccc(-c2ccc(CSc3nnc(-c4ccc5c(c4)OCO5)o3)cc2)c1	> 100	> 100	0.086	> 100	0.015	> 100	
N#Cc1cccc(-c2ccc(CSc3nnc(-c4ccc5c(c4)OCO5)o3)cc2)c1	> 100	> 100	0.029	> 100	0.004	> 100	
O=[N+]([O-])c1ccccc1-c1ccc(CSc2nnc(-c3ccc4c(c3)OCO4)o2)cc1	> 100	> 100	0.027	> 100	0.003	> 100	
c1ccc(-c2ccc(CSc3nnc(-c4ccc5c(c4)OCCO5)o3)cc2)cc1	> 100	> 100	0.234	> 100	0.051	> 100	
Fc1cc(F)cc(-c2ccc(CSc3nnc(-c4ccc5c(c4)OCCO5)o3)cc2)c1	> 100	> 100	0.966	> 100	0.035	> 100	
COc1ccc(-c2ccc(CSc3nnc(-c4ccc5c(c4)OCCO5)o3)cc2)c(C#N)c1	> 100	> 100	0.032	> 100	0.005	> 100	
COc1ccc(-c2ccc(CSc3nnc(-c4ccc5c(c4)OCCO5)o3)cc2)cc1	> 100	> 100	0.127	> 100	0.019	> 100	
O=[N+]([O-])c1cccc(-c2ccc(CSc3nnc(-c4ccc5c(c4)OCCO5)o3)cc2)c1	> 100	> 100	0.164	> 100	0.015	> 100	
O=[N+]([O-])c1ccccc1-c1ccc(CSc2nnc(-c3ccc4c(c3)OCCO4)o2)cc1	> 100	> 100	0.09	> 100	0.004	> 100	
N#Cc1cccc(-c2ccc(CSc3nnc(-c4ccc5c(c4)OCCO5)o3)cc2)c1	> 100	> 100	0.225	> 100	0.009	> 100	
COc1ccc(-c2ccc(CSc3nnc(-c4ccncc4)o3)cc2)cc1	> 100	> 100	0.176	> 100	0.24	> 100	

Now from value to compound, other results behind:

IC50 [1] [µM]	IC50 [2] [µM]	IC50 [3] [µM]	IC50 [4] [µM]	IC50 [5] [µM]	IC50 [6] [µM]	SMILES	Activity [7]
> 100	> 100	0.153	> 100	0.077	> 100	N#Cc1ccc(-c2ccc(CSc3nnc(-c4ccncc4)o3)cc2)cc1	
60	> 100	0.035	> 100	0.02	> 100	CC(=O)Nc1cc(-c2nnc(SCc3ccccc3)o2)ccn1	
45	> 100	0.014	50	0.005	> 100	COc1ccc(-c2ccc(CSc3nnc(-c4ccc5c(c4)OCO5)o3)cc2)c(C#N)c1	Non-toxic
40	> 100	0.075	20	0.007	> 100	COc1ccc(-c2ccc(CSc3nnc(-c4ccc5c(c4)OCO5)o3)cc2)cc1	
50	> 100	2	> 100	0.195	> 100	N#Cc1ccc(-c2ccc(CSc3nnc(-c4ccc5c(c4)OCCO5)o3)cc2)cc1	
60	> 100	0.084	> 100	0.046	> 100	N#Cc1cccc(-c2ccc(CSc3nnc(-c4ccncc4)o3)cc2)c1	
5	> 100	0.164	> 100	0.027	> 100	O=[N+]([O-])c1ccccc1-c1ccc(CSc2nnc(-c3ccncc3)o2)cc1	
